{
  "source": "patent EP0375414B1",
  "about": "“Substituted guanidine and amidine compounds, their production and fungicidal use” (DowElanco, priority 1988, dated 1990)",
  "key": {"Erysiphe graminis Hordei": {"tested_on": "Erysiphe graminis Hordei", "assay": "In vivo screen, Erysiphe graminis Hordei on barley", "parameters": "species or system Barley cv. Golden Promise", "conditions": "400 ppm sprayed to run off, inoculated 24 hours later, barley at 1 leaf stage, scored after 7 days, percent control vs acetone-water control plants", "protocol": "Barley cv. Golden Promise is used as the host plant. Seeds are sown 8 per 3 in. […] After a week symptoms are recorded. […] The percent control is then recorded."}, "Puccinia recondita": {"tested_on": "Puccinia recondita", "assay": "In vivo screen, Puccinia recondita on wheat", "parameters": "species or system Wheat cv. Tonic", "conditions": "400 ppm sprayed to run off, inoculated 24 hours later, wheat seedlings, incubated 4 days, percent control vs acetone-water control plants", "protocol": "Wheat cv. Tonic is used as the host plant. […] The tray is 60 cm x 30 cm.\nPercent control is then recorded."}, "Host Plants": {"tested_on": "Host Plants", "assay": "Phytotoxicity to host plants in the in vivo screen", "conditions": "400 ppm sprayed to run off, host plants of the in vivo screen", "method": "For each compound 3 replicate plants per pathogen at the 1 leaf stage are sprayed to run off. The plants are allowed to dry at room temperature for 24 hours prior to inoculation.\nUntreated control plants and plants sprayed with 10 percent acetone-water or water alone (as required) are included for each pathogen.\nBarley cv. Golden Promise is used as the host plant. Seeds are sown 8 per 3 in. (7.5 cm) pot and allowed to germinate and the plants are treated when they are approximately 2 weeks old. Spores are blown onto the test plants from the stock plants, which are then incubated at 20°C, relative humidity 70 percent for 7 days. After a week symptoms are recorded. The percent infection is scored from 3 replicate plants and expressed as a percent of the infection on the acetone-water control plants. The percent control is then recorded.\nWheat cv. Tonic is used as the host plant. Seeds are sown 1 cm deep in 4 rows per plastic tray. The tray is 60 cm x 30 cm. Seedlings grown to the 1-2 leaf stage are then inoculated. Into 100 mL of distilled water is placed 0.05 g of uredospores with a melting agent. This solution is sprayed onto the seedlings leaving a fine coverage on the leaves. The plants are then incubated with 100 percent relative humidity at 15-20°C for 4 days."}},
  "data": [
    {"smiles": "CC(=O)O.C[C@H]1[C@@H](c2ccc(C(C)(C)C)cc2)CCN1C1=NCCCN1", "note": "(relative stereo) [Example 1, Cis N-(tetrahydropyrimidin-2-yl)-2-methyl-3-(4-t-butylphenyl)pyrrolidinium acetate]", "values": [
      {"measurement": "Percent Efficacy, Erysiphe graminis", "setting": "Erysiphe graminis Hordei", "result": 100, "unit": "%"},
      {"measurement": "Percent Efficacy, Puccinia recondita", "setting": "Puccinia recondita", "result": 0, "unit": "%"},
      {"measurement": "Percent Phytotoxicity to Host Plants", "setting": "Host Plants", "result": 0, "unit": "%"}
    ]},
    {"smiles": "CC(=O)O.C[C@H]1[C@H](c2ccc(C(C)(C)C)cc2)CCN1C1=NCCCN1", "note": "(relative stereo) [Example 2, trans N-(tetrahydropyrimidin-2-yl)-2-methyl-3-(4-t-butylphenyl)pyrrolidine acetate]", "values": [
      {"measurement": "Percent Efficacy, Erysiphe graminis", "setting": "Erysiphe graminis Hordei", "result": 83, "unit": "%"},
      {"measurement": "Percent Efficacy, Puccinia recondita", "setting": "Puccinia recondita", "result": 0, "unit": "%"},
      {"measurement": "Percent Phytotoxicity to Host Plants", "setting": "Host Plants", "result": 0, "unit": "%"}
    ]},
    {"smiles": "C[C@H]1[C@@H](c2ccc(C(C)(C)C)cc2)CCN1C1=NCCCN1.Cl", "note": "(relative stereo) [Example 3, Cis N-(tetrahydropyrimidin-2-yl)-2-methyl-3--(4-t-butylphenyl)pyrrolidinium chloride]", "values": [
      {"measurement": "Percent Efficacy, Erysiphe graminis", "setting": "Erysiphe graminis Hordei", "result": 14, "unit": "%"},
      {"measurement": "Percent Efficacy, Puccinia recondita", "setting": "Puccinia recondita", "result": 100, "unit": "%"}
    ]},
    {"smiles": "C[C@H]1[C@H](c2ccc(C(C)(C)C)cc2)CCN1C1=NCCCN1.Cl", "note": "(relative stereo) [Example 4, Trans N-(tetrahydropyrimidin-2-yl)-2-methyl,3-(4-t-butylphenyl)pyrrolidinium chloride]", "values": [
      {"measurement": "Percent Efficacy, Erysiphe graminis", "setting": "Erysiphe graminis Hordei", "result": 87, "unit": "%"},
      {"measurement": "Percent Efficacy, Puccinia recondita", "setting": "Puccinia recondita", "result": 66, "unit": "%"}
    ]},
    {"smiles": "CC1CC(C)NC(N2CC[C@H](c3ccc(C(C)(C)C)cc3)[C@@H]2C)=N1.Cl", "note": "(relative stereo) [Example 5, Cis N-(4,6-dimethyltetrahydropyrimidin-2-yl)-2-methyl-3-(4-t-butylphenyl)pyrrolidinium chloride]", "values": [
      {"measurement": "Percent Efficacy, Erysiphe graminis", "setting": "Erysiphe graminis Hordei", "result": 52, "unit": "%"},
      {"measurement": "Percent Efficacy, Puccinia recondita", "setting": "Puccinia recondita", "result": 100, "unit": "%"},
      {"measurement": "Percent Phytotoxicity to Host Plants", "setting": "Host Plants", "result": 0, "unit": "%"}
    ]},
    {"smiles": "CC1CC(C)NC(N2CC[C@@H](c3ccc(C(C)(C)C)cc3)[C@@H]2C)=N1.Cl", "note": "(relative stereo) [Example 6, Trans N-(4,6-dimethyltetrahydropyrimidin-2-yl)-2-methyl-3-(4-t-butylphenyl)pyrrolidinium chloride]", "values": [
      {"measurement": "Percent Efficacy, Erysiphe graminis", "setting": "Erysiphe graminis Hordei", "result": 100, "unit": "%"},
      {"measurement": "Percent Efficacy, Puccinia recondita", "setting": "Puccinia recondita", "result": 0, "unit": "%"},
      {"measurement": "Percent Phytotoxicity to Host Plants", "setting": "Host Plants", "result": 0, "unit": "%"}
    ]},
    {"smiles": "CCCCCCCC[C@H]1CCN(C2=NCCCN2)[C@H]1C.Cl", "note": "(relative stereo) [Example 7, Cis N-(tetrahydropyrimidin-2-yl)-2-methyl-3-octyl pyrrolidinium chloride]", "values": [
      {"measurement": "Percent Efficacy, Erysiphe graminis", "setting": "Erysiphe graminis Hordei", "result": 79, "unit": "%"},
      {"measurement": "Percent Efficacy, Puccinia recondita", "setting": "Puccinia recondita", "result": 0, "unit": "%"}
    ]}
  ]
}
